Structures can show the parent of a compound that is named as a salt. Some results are limits rather than exact numbers.

Broadly, the IC50 is the concentration at which inhibition is half-maximal. Read a low IC50 as inhibition by little substance.

T1 sequence (P19156 2-1034 limits assumed): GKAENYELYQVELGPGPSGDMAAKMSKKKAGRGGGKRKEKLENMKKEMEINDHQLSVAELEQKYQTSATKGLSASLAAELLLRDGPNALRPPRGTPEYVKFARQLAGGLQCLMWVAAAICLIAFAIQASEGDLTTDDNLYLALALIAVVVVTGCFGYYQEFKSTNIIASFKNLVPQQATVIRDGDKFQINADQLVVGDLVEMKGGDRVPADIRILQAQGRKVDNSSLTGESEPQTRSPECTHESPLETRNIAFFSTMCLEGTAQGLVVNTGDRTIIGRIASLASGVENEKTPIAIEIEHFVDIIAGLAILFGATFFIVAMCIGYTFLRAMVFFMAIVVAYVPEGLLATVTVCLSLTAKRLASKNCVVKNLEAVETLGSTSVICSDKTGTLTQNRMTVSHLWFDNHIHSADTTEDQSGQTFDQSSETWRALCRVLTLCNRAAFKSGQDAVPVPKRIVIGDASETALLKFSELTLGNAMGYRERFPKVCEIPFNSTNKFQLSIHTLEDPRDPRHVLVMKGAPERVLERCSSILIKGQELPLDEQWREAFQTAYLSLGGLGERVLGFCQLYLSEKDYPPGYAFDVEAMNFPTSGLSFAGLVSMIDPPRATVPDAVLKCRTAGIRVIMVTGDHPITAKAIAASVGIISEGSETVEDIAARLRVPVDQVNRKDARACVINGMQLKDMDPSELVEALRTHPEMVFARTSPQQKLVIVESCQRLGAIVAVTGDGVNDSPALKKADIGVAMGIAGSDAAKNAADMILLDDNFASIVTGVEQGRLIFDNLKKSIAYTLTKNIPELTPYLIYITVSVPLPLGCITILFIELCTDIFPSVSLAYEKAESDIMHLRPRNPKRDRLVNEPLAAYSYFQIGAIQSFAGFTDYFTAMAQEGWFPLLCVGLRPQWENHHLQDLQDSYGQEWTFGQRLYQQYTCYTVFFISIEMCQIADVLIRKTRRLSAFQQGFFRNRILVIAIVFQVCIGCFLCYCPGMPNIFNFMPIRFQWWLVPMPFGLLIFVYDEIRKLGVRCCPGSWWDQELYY
T1 sequence (P18434 whole entry partner): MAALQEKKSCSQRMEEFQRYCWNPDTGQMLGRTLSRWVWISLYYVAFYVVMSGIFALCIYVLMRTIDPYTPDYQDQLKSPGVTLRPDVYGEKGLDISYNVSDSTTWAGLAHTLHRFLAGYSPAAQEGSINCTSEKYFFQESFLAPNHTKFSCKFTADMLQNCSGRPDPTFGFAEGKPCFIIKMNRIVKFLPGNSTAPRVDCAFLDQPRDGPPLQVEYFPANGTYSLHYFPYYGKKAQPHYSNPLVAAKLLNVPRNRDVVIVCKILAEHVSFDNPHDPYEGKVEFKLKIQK

The first assay addresses T1, Proton Pump (H^+,K^+-ATPase) (Sus scrofa, UniProt P19156).
T1 construct: gastric vesicles were isolated from porcine stomachs; from tissue; host or cells: porcine stomach (gastric vesicles)
The assay is described as follows: Inhibitory activity on proton pump (H+,K+-ATPase) activity, porcine gastric vesicles, malachite green readout. Type of assay: biochemical. As to conditions: porcine gastric vesicles, pH 6.5, 8 mM KCl, 0.2 mM ATP. As to the method:
Specifically, gastric vesicles were isolated from porcine stomachs, and the protein content of the vesicles was quantified using a BSA kit (Bio-Rad, 5000205). All reactions were performed in 96-well plates with a reaction volume of […] containing 100 ng of vesicles. 10 mM valinomycin and the test compound were added to reaction buffer (50 mM Tris-HEPES, 5 mM MgCl2, 8 mM KCl, pH 6.5) containing porcine gastric vesicles at various concentrations, and the mixture was incubated at 37°C for 30 minutes. DMSO or test compounds at different concentrations were added after diluting them to a final DMSO concentration of 0.1%. 0.2 mM adenosine triphosphate (ATP) was then added to the reaction buffer and incubated at 37°C for 20 minutes. The reaction was stopped with 0.2% Tween 20, followed by the addition of malachite green (Sigma Aldrich, MAK307) and incubation at room temperature for 30 minutes. The optical density (OD) value was measured at 620 nm using a microplate reader (Spectramax M5e, Molecular devices). The percent (%) inhibition was derived from the OD values of the control group and various concentrations of the test compounds. The IC50 of the test compounds was analyzed using nonlinear regression using the GraphPad Prism8 program using the % inhibition value at each concentration.
In turn, `Cc1cccc(C)c1CNc1cc(NC(=O)[C@H]2CCN2)cn2c(C)c(C)nc12` [Example 36, (R)-N-(8-((2,6-dimethylbenzyl)amino)-2,3-dimethylimidazo[1,2-a]pyridin-6-yl)azetidine-2-carboxamide hydrochloride] showed an IC50 of 50 to 100 nM.
The same measure, in the same setting: with `Cc1cccc(C)c1CNc1cc(NC(=O)NCCN)cn2c(C)c(C)nc12` [Example 37, 1-(2-aminoethyl)-3-(8-((2,6-dimethylbenzyl)amino)-2,3-dimethylimidazo[1,2-a]pyridin-6-yl)urea hydrochloride] the figure was 50 to 100 nM; with `Cc1cccc(C)c1CNc1cc(NC(=O)CCC(=O)O)cn2c(C)c(C)nc12` [Example 38, 4-((8-((2,6-dimethylbenzyl)amino)-2,3-dimethylimidazo[1,2-a]pyridin-6-yl)amino)-4-oxobutanoic acid], greater than 500 nM; with `Cc1cccc(C)c1CNc1cc(NC(=O)CCOCCC(=O)O)cn2c(C)c(C)nc12` [Example 39], greater than 500 nM.
In turn, `CCOC(=O)CCC(=O)Nc1cc(NCc2c(C)cccc2C)c2nc(C)c(C)n2c1` [Example 40, ethyl 4-((8-((2,6-dimethylbenzyl)amino)-2,3-dimethylimidazo[1,2-a]pyridin-6-yl)amino)-4-oxobutanoate] showed an IC50 of 100 to 500 nM.
On the same count and under the same terms, with `Cc1cccc(C)c1CNc1cc(NC(=O)CCOCCC(=O)OC(C)(C)C)cn2c(C)c(C)nc12` [Example 41] the figure was greater than 500 nM.
On the same count and under the same terms, with `Cc1cccc(C)c1CNc1cc(NC(=O)N(C)C)cn2c(C)c(C)nc12` [Example 43, 3-(8-((2,6-dimethylbenzyl)amino)-2,3-dimethylimidazo[1,2-a]pyridin-6-yl)-1,1-dimethylurea hydrochloride] the figure was less than 50 nM; with `CNC(=O)Nc1cc(NCc2c(C)cc(F)cc2C)c2nc(C)c(C)n2c1` [Example 44, 1-(8-((4-fluoro-2,6-dimethylbenzyl)amino)-2,3-dimethylimidazo[1,2-a]pyridin-6-yl)-3-methylurea hydrochloride], less than 50 nM; with `COC(=O)CNC(=O)Nc1cc(NCc2c(C)cccc2C)c2nc(C)c(C)n2c1` [Example 46, hydrochloride], 50 to 100 nM.
Compound `CNC(=O)CNC(=O)Nc1cc(NCc2c(C)cccc2C)c2nc(C)c(C)n2c1` [Example 47, 2-(3-(8-((2,6-dimethylbenzyl)amino)-2,3-dimethylimidazo[1,2-a]pyridin-6-yl)ureido)-N-methylacetamide hydrochloride] returned an IC50 of 50 to 100 nM.
The same measure, in the same setting: with `Cc1cccc(C)c1CNc1cc(NC(=O)NCC(=O)N(C)C)cn2c(C)c(C)nc12` [Example 48, 2-(3-(8-((2,6-dimethylbenzyl)amino)-2,3-dimethylimidazo[1,2-a]pyridin-6-yl)ureido)-N,N-dimethylacetamide hydrochloride] the figure was 50 to 100 nM; with `Cc1cc(F)cc(C)c1CNc1cc(NC(=O)N(C)C)cn2c(C)c(C)nc12` [Example 49, 3-(8-((4-fluoro-2,6-dimethylbenzyl)amino)-2,3-dimethylimidazo[1,2-a]pyridin-6-yl)-1,1-dimethylurea hydrochloride], less than 50 nM.
Same read-out and setting: with `Cc1cc(F)cc(C)c1CNc1cc(NC(=O)NC2CC2)cn2c(C)c(C)nc12` [Example 50, 1-cyclopropyl-3-(8-((4-fluoro-2,6-dimethylbenzyl)amino)-2,3-dimethylimidazo[1,2-a]pyridin-6-yl)urea hydrochloride] the figure was less than 50 nM; with `Cc1cc(F)cc(C)c1CNc1cc(NC(=O)N2CCC2)cn2c(C)c(C)nc12` [Example 51, N-(8-((4-fluoro-2,6-dimethylbenzyl)amino)-2,3-dimethylimidazo[1,2-a]pyridin-6-yl)azetidine-1-carboxamide citrate], less than 50 nM.
Take `CC(=O)NCC(=O)Nc1cc(NCc2c(C)cccc2C)c2nc(C)c(C)n2c1` [Example 52, 2-acetamido-N-(8-((2,6-dimethylbenzyl)amino)-2,3-dimethylimidazo[1,2-a]pyridin-6-yl)acetamide]: the IC50 lay in the range of 100 to 500 nM.
The same measure, in the same setting: with `Cc1cccc(C)c1CNc1cc(NC(=O)CN(C)C)cn2c(C)c(C)nc12` [Example 53, 2-(dimethylamino)-N-(8-((2,6-dimethylbenzyl)amino)-2,3-dimethylimidazo[1,2-a]pyridin-6-yl)acetamide] the figure was 100 to 500 nM.
In turn, `CCCNC(=O)Nc1cc(NCc2c(C)cccc2C)c2nc(C)c(C)n2c1` [Example 54] had an IC50 of 100 to 500 nM.
In turn, `Cc1cccc(C)c1CNc1cc(NC(=O)CNC(=O)C(C)(C)C)cn2c(C)c(C)nc12` [Example 55, N-(2-((8-((2,6-dimethylbenzyl)amino)-2,3-dimethylimidazo[1,2-a]pyridin-6-yl)amino)-2-oxoethyl)pivalamide] returned an IC50 greater than 500 nM.
Same read-out and setting: with `Cc1cccc(C)c1CNc1cc(NC(=O)CNC(=O)C(F)F)cn2c(C)c(C)nc12` [Example 56, N-(2-((8-((2,6-dimethylbenzyl)amino)-2,3-dimethylimidazo[1,2-a]pyridin-6-yl)amino)-2-oxoethyl)-2,2-difluoroacetamide] the figure was greater than 500 nM; with `Cc1cccc(C)c1CNc1cc(NC(=O)CNC(=O)C(C)(F)F)cn2c(C)c(C)nc12` [Example 57, N-(2-((8-((2,6-dimethylbenzyl)amino)-2,3-dimethylimidazo[1,2-a]pyridin-6-yl)amino)-2-oxoethyl)-2,2-difluoropropanamide], 100 to 500 nM; with `Cc1cccc(C)c1CNc1cc(NC(=O)CNC(=O)C2CC(O)C2)cn2c(C)c(C)nc12` (stereo not drawn) [Example 58, N-(2-((8-((2,6-dimethylbenzyl)amino)-2,3-dimethylimidazo[1,2-a]pyridin-6-yl)amino)-2-oxoethyl)-3-hydroxycyclobutane-1-carboxamide], 100 to 500 nM.
Same read-out and setting: with `Cc1cccc(C)c1CNc1cc(NC(=O)CNC(=O)C2CC(F)C2)cn2c(C)c(C)nc12` (stereo not drawn) [Example 59, N-(2-((8-((2,6-dimethylbenzyl)amino)-2,3-dimethylimidazo[1,2-a]pyridin-6-yl)amino)-2-oxoethyl)-3-fluorocyclobutane-1-carboxamide] the figure was 100 to 500 nM; with `Cc1cccc(C)c1CNc1cc(NC(=O)N2CCOCC2)cn2c(C)c(C)nc12` [Example 61, N-(8-((2,6-dimethylbenzyl)amino)-2,3-dimethylimidazo[1,2-a]pyridin-6-yl)morpholine-4-carboxamide citrate], 50 to 100 nM.
Still for that read-out and setting: with `CC(=O)OCCNC(=O)Nc1cc(NCc2c(C)cccc2C)c2nc(C)c(C)n2c1` [Example 62, 2-(3-(8-((2,6-dimethylbenzyl)amino)-2,3-dimethylimidazo[1,2-a]pyridin-6-yl)ureido)ethyl acetate hydrochloride] the figure was 100 to 500 nM; with `Cc1cc(F)cc(C)c1CNc1cc(NC(=O)[C@H](C)N)cn2c(C)c(C)nc12` [Example 63, (S)-2-amino-N-(8-((4-fluoro-2,6-dimethylbenzyl)amino)-2,3-dimethylimidazo[1,2-a]pyridin-6-yl)propanamide hydrochloride], 50 to 100 nM.
`Cc1cc(F)cc(C)c1CNc1cc(NC(=O)CN)cn2c(C)c(C)nc12.Cl` [Example 64, 2-amino-N-(8-((4-fluoro-2,6-dimethylbenzyl)amino)-2,3-dimethylimidazo[1,2-a]pyridin-6-yl)acetamide hydrochloride] yielded an IC50 of less than 50 nM.
As to `Cc1cc(F)cc(C)c1CNc1cc(NC(=O)[C@@H]2CCN2)cn2c(C)c(C)nc12` [Example 65, (S)-N-(8-((4-fluoro-2,6-dimethylbenzyl)amino)-2,3-dimethylimidazo[1,2-a]pyridin-6-yl)azetidine-2-carboxamide hydrochloride], the IC50 lay within 50 to 100 nM.
`Cc1cccc(C)c1CNc1cc(NC(=O)N2CC3(CCC3)C2)cn2c(C)c(C)nc12` [Example 66, N-(8-((2,6-dimethylbenzyl)amino)-2,3-dimethylimidazo[1,2-a]pyridin-6-yl)-2-azaspiro[3.3]heptane-2-carboxamide citrate]: the IC50 lay in the range of 100 to 500 nM.
Same read-out and setting: with `Cc1cccc(C)c1CNc1cc(NC(=O)N2Cc3ccccc3C2)cn2c(C)c(C)nc12` [Example 67, N-(8-((2,6-dimethylbenzyl)amino)-2,3-dimethylimidazo[1,2-a]pyridin-6-yl)isoindoline-2-carboxamide] the figure was 50 to 100 nM.
The same measure, in the same setting: with `Cc1cccc(C)c1CNc1cc(NC(=O)N2Cc3ccncc3C2)cn2c(C)c(C)nc12` [Example 68, N-(8-((2,6-dimethylbenzyl)amino)-2,3-dimethylimidazo[1,2-a]pyridin-6-yl)-1,3-dihydro-2H-pyrrolo[3,4-c]pyridine-2-carboxamide] the figure was 50 to 100 nM.
The same measure, in the same setting: with `Cc1cccc(C)c1CNc1cc(NC(=O)N2CC(=O)C2)cn2c(C)c(C)nc12` [Example 69, N-(8-((2,6-dimethylbenzyl)amino)-2,3-dimethylimidazo[1,2-a]pyridin-6-yl)-3-oxoazetidine-1-carboxamide citrate] the figure was less than 50 nM; with `Cc1cccc(C)c1CNc1cc(NC(=O)NCC(=O)O)cn2c(C)c(C)nc12` [Example 70, ((8-((2,6-dimethylbenzyl)amino)-2,3-dimethylimidazo[1,2-a]pyridin-6-yl)carbamoyl)glycine hydrochloride], 100 to 500 nM.

Still in this assay, the particulars now being: result in words.
Consider `Cc1cc(F)cc(C)c1CNc1cc(NC(=O)CN)cn2c(C)c(C)nc12.Cl` [Example 64, 2-amino-N-(8-((4-fluoro-2,6-dimethylbenzyl)amino)-2,3-dimethylimidazo[1,2-a]pyridin-6-yl)acetamide hydrochloride], for which the “inhibitory activity against proton pump activity” value is listed as “excellent inhibitory properties”.

The values are drawn from patent publication EP4778924A1 (Huons Co., Ltd., priority 2023, dated 2025).
